The structures appear in SMILES notation.

The assay concerns D54 ERlucT glycosylation luciferase reporter, luminescence, 24 h. The assay can be described thus: blockers of NLG process in reporter cells – D54 ERlucT cells, luminescence, cherry-picks, dose response (AID 624491).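 Further: signal gain reflects blocked N-linked glycosylation of a luciferase reporter; actives raise luciferase signal so AC26 marks activators of the reporter.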
In the case of `C/C(=N\NC(=O)c1c([N+](=O)[O-])c(C)nn1C)c1ccc(NC(=O)C2CCCC2)cc1`, the AC26 is 498 nM.

For the compound `CN(C)/N=C/c1ccc(Sc2ccc([N+](=O)[O-])cc2[N+](=O)[O-])o1`, the AC26 is 1880 nM.

Turning to `C=CCNc1nc(Nc2ccc(OC)c(OC)c2)c2sc(-c3ccccc3)cc2n1`, the AC26 is 513 nM.

For the compound `Nc1[nH]nc2nc(NCc3ccccc3)c3c(c12)CCN(Cc1ccccc1)C3`, the AC26 is 1030 nM.

On to `O=C(/C=C/Sc1ccc(C(F)(F)F)cn1)c1ccccc1`, for which the AC26 is 3910 nM.

Regarding `COc1ccc(C(=O)CC(SCC(NC(C)=O)C(=O)O)c2ccc(Cl)cc2)cc1OC` (stereo not given), the AC26 was 1440 nM.

As to `CCC12CCC3c4ccc(O)cc4CCC3C1CC(O)C2O` (stereo not given), the AC26 is 10000 nM.

On to `CCN1C(=O)Nc2cccc3cccc1c23`, for which the AC26 was 3360 nM.

For the compound `CC(C)(C)c1ccc(OCc2ccc(C(=O)N3CCOCC3)o2)cc1`, the AC26 was 2160 nM.

Regarding `COc1cccc(N2[C@@H](CC(C)=O)c3ccc(/C=C/C(C)=O)cc3S2(=O)=O)c1`, the AC26 was 3280 nM.

As to `CC(C)(C)c1nnc2sc(SCC(=O)c3ccc4c(c3)OCCO4)nn2c1=O`, the AC26 is 5230 nM.

In the case of `COC(=O)c1ccc(C(=O)NC2CCCc3c2cnn3-c2ccccc2F)nc1` (stereo not given), the AC26 is 4140 nM.

As to `COc1cc(C(=O)OCC(C)=O)ccc1OCc1c(C)noc1C`, the AC26 is 3270 nM.

Regarding `COc1ccc2c(c1)[C@H]1[C@H](CO2)[C@H](c2ccccc2)[C@]2(C)C(=O)Nc3cc(C)ccc3C(=O)N12`, the AC26 was 51.9 nM.

For the compound `COc1ccc(C(C)(O)c2nc(-c3ccc(F)cc3OC)cs2)cc1` (stereo not given), the AC26 is 5930 nM.

As to `Cc1ccc(C(=O)N/C(=C\c2ccco2)C(=O)NCCc2c[nH]c3ccccc23)cc1`, the AC26 was 2310 nM.

`Nc1ccc(C(=O)Nc2ccccc2N)cc1`: the AC26 was 2880 nM.

Take `CCn1c2ccccc2c2cc(NC(=O)CNCc3ccccc3OC)ccc21`: the AC26 is 1360 nM.

In the case of `Cn1nc(-c2ccc(Cl)cc2)c2cc(C(=O)NCCCN3CCOCC3)sc21`, the AC26 was 4330 nM.

For the compound `O=C(N/N=C/c1ccccc1)c1sccc1OCc1ccc(F)cc1`, the AC26 was 2600 nM.

On to `O=C(N/N=C\c1cn(-c2ccccc2)nc1-c1ccccc1)c1ccc(Br)o1`, for which the AC26 is 9570 nM.

Turning to `COc1cc(Nc2c3c(nc4ccccc24)CCCC3)cc(OC)c1OC`, the AC26 is 581 nM.

Turning to `Clc1cccc(N2Cc3cc(-c4ccccc4)ccc3-n3nncc3C2)c1`, the AC26 is 3580 nM.

On to `CCn1c2ccccc2c2cc(NC(=O)COC(=O)C3CCC(=O)N3)ccc21` (stereo not given), for which the AC26 is 3400 nM.

As to `O=C(/C=C/Sc1ccccc1)c1ccccc1`, the AC26 is 2150 nM.

On to `CC[C@H](C)C(=O)O[C@H]1CCC=C2C=C[C@H](C)[C@H](CC[C@@H]3C[C@@H](O)CC(=O)O3)[C@H]21`, for which the AC26 was 180 nM.

For the compound `O=C(Nc1cccc(F)c1)c1cc(S(=O)(=O)N2CCOCC2)ccc1N1CCCC1`, the AC26 was 947 nM.

On to `CN=c1sc(C(=O)Nc2cccc(Cl)c2)cc(=O)n1C`, for which the AC26 was 349 nM.

Consider `O=c1c2ccccc2sc2c(CO)ccc(NCCN3CCCCC3)c12`, for which the AC26 is 705 nM.

For `COCCNC(=O)c1cc(-c2ccccc2OC)on1`, the AC26 is 9620 nM.

As to `C[C@H]1CN([C@@H](C)CO)C(=O)Cc2cc(NC(=O)CCC(F)(F)F)ccc2O[C@H]1CN(C)S(=O)(=O)c1ccc(Cl)cc1`, the AC26 is 2260 nM.

`COC(=O)C1=C(c2cc3ccccc3s2)C[C@@H]2CC[C@H]1N2C(=O)N1CCOCC1`: the AC26 is 13600 nM.

On to `Cc1nc2c3cc(Cl)ccc3n(CCN3CCCCC3)c2s1`, for which the AC26 is 896 nM.

In the case of `Cc1cc([N+](=O)[O-])ccc1-c1ccc(/C=N/NC(=O)c2ccc(Br)o2)o1`, the AC26 was 4510 nM.

With `COc1ccc(CCCNC(=O)C2Cc3c(-c4cccc(C(C)=O)c4)ccnc3O2)cc1` (stereo not given), the AC26 is 12600 nM.

For `COc1cc(-c2noc(C)c2/C=C/c2ccc(OC(C)=O)cc2)cc(OC)c1OC`, the AC26 is 494 nM.

Consider `O=C(Nc1c2ccccc2nc2ccccc12)C(Cl)(Cl)Cl`, for which the AC26 is 3340 nM.

As to `COc1ccc2c(c1)OC[C@H]1[C@H]2N2C(=O)c3cc(Cl)ccc3NC(=O)[C@@]2(C)[C@H]1c1ccccc1`, the AC26 was 1250 nM.

As for `C#CC[N+](C)(C)CCCCCCCCC`, the AC26 is 6070 nM.

Consider `Cn1c(=O)[nH]c(=O)c2c1nc(N/N=C/c1cccnc1)n2Cc1ccc(Cl)cc1`, for which the AC26 is 1630 nM.

Take `COc1cc(-c2nc(-c3ccccc3)c(-c3cccs3)[nH]2)cc(OC)c1O`: the AC26 was 6100 nM.

Take `CS(=O)(=O)c1cccc(C(=O)Nc2ccc(-c3nc4ccccc4[nH]3)cc2)c1`: the AC26 is 3070 nM.

For the compound `CC(C)(C)S(=O)(=O)N1C[C@H]2CC/C=C\C/C(c3ccccc3)=C\2[C@@H]1CCO`, the AC26 was 1030 nM.

Consider `Cc1ccc2c(c1)cc(CN(C(=O)N1CCOCC1)C1CCCC1)c1nnnn12`, for which the AC26 is 4120 nM.

For `Cc1cccn2c(=O)c3cc(C(=O)NCc4ccco4)c(=N)n(CCc4ccccc4)c3nc12`, the AC26 is 1170 nM.

Turning to `C=CCn1c(O)c(C(CC)=NC(C)c2ccccc2)c(=O)[nH]c1=O` (stereo not given), the AC26 was 3140 nM.

Turning to `CCOC(=O)[C@H]1[C@H]2COc3ccc(Br)cc3[C@@H]2N2C(=O)c3cc(OC)c(OC)cc3NC(=O)[C@@]12C`, the AC26 was 4040 nM.

Take `Cc1ccc(Oc2ccc(S(=O)(=O)N3CCOCC3)cc2C(N)=O)c(-n2nc3ccccc3n2)c1`: the AC26 was 2770 nM.

As to `COc1ccc(-c2nc(C(N)=O)c3[nH]c(=O)n(-c4cccc(Cl)c4)c3n2)cc1OC`, the AC26 was 5880 nM.

Regarding `COc1ccc(NC(=O)c2cccc3c(-c4ccc(O)c(OC)c4)coc23)cc1`, the AC26 was 13400 nM.

Consider `NC(=O)CC(NC(=O)Cc1ccc(Br)cc1)c1ccc(NCC2CC2)c([N+](=O)[O-])c1` (stereo not given), for which the AC26 is 6670 nM.

With `COc1ccc(OC)c(-c2cc(-c3cccnc3)nc(N)c2C#N)c1`, the AC26 is 2230 nM.

Turning to `O=C(N/N=C/c1ccccn1)c1cc(-c2ccncc2)nc2ccccc12`, the AC26 was 499 nM.

Turning to `CCOc1nc(N=C(N)N)nc2c(C)cccc12`, the AC26 is 2480 nM.

As for `COc1cc2c(cc1OC)C(=O)N1[C@H]3c4ccccc4OC[C@@H]3[C@H](c3ccccc3)[C@]1(C)C(=O)N2`, the AC26 was 42.6 nM.

Turning to `COc1ccc(F)cc1-c1cc(NC(C)=O)c2ncc(-c3cc(OC)c(OC)c(OC)c3)n2c1`, the AC26 was 11300 nM.

As for `Cc1cc2c(cc(C(=O)OCC(=O)NCc3ccco3)n2C)s1`, the AC26 is 198 nM.

Consider `COc1cccc(C(=O)Nc2ccc(N3CCN(C(=O)c4ccco4)CC3)cc2)c1`, for which the AC26 was 10700 nM.

On to `COc1cc(-c2nc3ccc(N4CCN(C)CC4)cc3[nH]2)cc(OC)c1OC`, for which the AC26 was 535 nM.

Regarding `Cc1ccc(C(=O)Nc2ccccc2C(=O)N2CC(C)OC(C)C2)cc1` (stereo not given), the AC26 is 1330 nM.

With `Cc1cccc(Nc2nc(N)nc(-c3oc4ccccc4c3C)n2)c1`, the AC26 was 7050 nM.

For `COc1ccccc1N1CC(O)=C(c2nc3ccccc3c(=O)[nH]2)C1=N`, the AC26 is 1320 nM.

In the case of `CCCNc1nc2ccccc2n2c(C)nnc12`, the AC26 is 2980 nM.

On to `COc1cccc(C(NC(C)=O)c2nc(-c3ccccc3C)cs2)c1` (stereo not given), for which the AC26 was 774 nM.

Turning to `COc1cccc2nc3c(C(=O)NCCN(C)C)cccc3cc12`, the AC26 was 164 nM.

With `Cc1cc(C)nc(/N=C(\N)Nc2ccc(OCCC(C)C)cc2)n1`, the AC26 is 776 nM.

On to `OCCCN=c1cc(-c2ccccc2)oc2ccc(Cl)cc12`, for which the AC26 is 978 nM.

For the compound `Cn1nc(C(=O)Nc2cccc(S(=O)(=O)N3CCCC3)c2)c2ccccc2c1=O`, the AC26 is 666 nM.

Consider `COc1ccc(/C=N\NC(=O)c2sccc2C)cc1Cn1nc(C)cc1C`, for which the AC26 was 507 nM.

Turning to `COc1ccc2nc(SCC(=O)NC3CCCC3)c(C)cc2c1`, the AC26 is 10200 nM.

As to `CCCC(=O)Nc1nc2ccc(NC(=O)c3c(F)c(F)c(OC)c(F)c3F)cc2s1`, the AC26 was 974 nM.

With `C=CCn1c(SCc2c(C)noc2C)nc2ccccc2c1=O`, the AC26 is 163 nM.

As to `COc1ccc2nc3c(cc2c1)c(NC(=O)CC(C)C)nn3CC(C)C`, the AC26 is 8100 nM.

`CCn1c(SCC(=O)N/N=C/c2ccc(C)s2)nc2ccccc21`: the AC26 is 2200 nM.

Turning to `COc1ccccc1NC(=O)Cn1nnc(C(=O)NCc2cccs2)c1N`, the AC26 is 867 nM.

`Cn1c(=O)[nH]c(=O)c2c1nc(N(CCO)Cc1ccccc1)n2CCCc1ccccc1`: the AC26 is 800 nM.

`O=C(Nc1ccccc1N1CCOCC1)c1ccc2nc[nH]c2c1`: the AC26 is 1130 nM.

With `CCOC(=O)C1=CC[C@@H](c2ccncc2)N(S(=O)(=O)c2ccc(C)cc2)C1`, the AC26 is 12100 nM.

Regarding `O=C(OCn1ncc(Cl)c(Cl)c1=O)c1ccc(C(F)(F)F)cc1`, the AC26 was 1130 nM.

With `Cc1cccc(NC(=O)c2cnn3ccccc23)c1C`, the AC26 was 9570 nM.

For the compound `COc1ccc(Nc2nc3cc(-c4sccc4C)sc3c(=O)n2C)cc1OC`, the AC26 was 477 nM.

With `Cn1c(=O)n(C)c2cc(NS(=O)(=O)c3ccc4c(c3)CCCC4)ccc21`, the AC26 is 2670 nM.

Turning to `Cc1ccc(-c2cc(C(=O)Nc3ccncc3)c3ccccc3n2)cc1`, the AC26 is 1910 nM.

Take `O=C(N/N=C\C=C\c1ccc([N+](=O)[O-])o1)c1cccs1`: the AC26 was 7850 nM.

On to `O=c1cc(-c2ccccc2)nc2cc(-c3ccc(F)cc3)[nH]n12`, for which the AC26 was 4270 nM.

As for `Cc1cc(NC(=O)CSc2nc3sc(C)c(C)c3c(=O)n2C2CCCC2)no1`, the AC26 is 4700 nM.

In the case of `COc1ccc2c(c1)OC[C@H]1[C@H]2N2C(=O)c3cc(OC)ccc3NC(=O)[C@@]2(C)[C@H]1c1ccccc1`, the AC26 was 1360 nM.

For `NC(=O)c1cccc(-c2ccnc3c2CC(C(=O)NCc2ccccc2)O3)c1` (stereo not given), the AC26 is 2000 nM.

Take `CCCCCCC(=O)N(O)C1CC(=O)N(c2ccc(F)cc2)C1=O` (stereo not given): the AC26 is 1290 nM.

On to `COc1cc(OC)cc(C(=O)NCC(=O)Nc2ccc(-c3ccccc3)cc2)c1`, for which the AC26 is 8830 nM.

With `CC(=O)c1cccc(Nc2cc(C)nc3c(C)cccc23)c1`, the AC26 is 5870 nM.

As to `Cc1cc(C)c(NC(=O)CSc2nc(COc3ccccc3)nc3ccccc23)c(C)c1`, the AC26 is 5220 nM.

On to `COc1ccc2c(c1)C(=O)N1[C@H]3c4cc(OC)ccc4OC[C@@H]3[C@H](c3ccccc3)[C@]1(C)C(=O)N2`, for which the AC26 was 197 nM.

As for `COc1ccccc1/C=C/C(=O)/C=C/c1ccccc1O`, the AC26 was 696 nM.

On to `Cc1cc(C)c2c(N)c3ccccc3nc2n1`, for which the AC26 was 762 nM.
